Among the data in patent publication US8658646B2, “Pyrrolopyrazine kinase inhibitors” (Hoffmann-LaRoche Inc., priority 2011, dated 2014) are IC50 values, retold here.

Values joined by “and” are separate entries in the source; they are usually repeats but may differ in a detail not shown here. Equal values may be shown once.

T1 sequence (P52333 822-1111 limits assumed): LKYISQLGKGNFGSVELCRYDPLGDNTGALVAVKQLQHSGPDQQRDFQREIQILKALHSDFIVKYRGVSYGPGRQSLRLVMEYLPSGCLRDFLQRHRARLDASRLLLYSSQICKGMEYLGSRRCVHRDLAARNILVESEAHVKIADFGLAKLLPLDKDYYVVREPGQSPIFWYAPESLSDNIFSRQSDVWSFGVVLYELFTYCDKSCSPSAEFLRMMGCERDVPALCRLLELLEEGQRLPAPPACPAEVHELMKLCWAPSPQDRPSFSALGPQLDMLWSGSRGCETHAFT

The assay has as its target T1, JAK3: Recombinant human kinase domain (Homo sapiens, UniProt P52333).
T1 construct: JAK3: Recombinant human kinase domain from Millipore (Cat #14-629) or prepared; purchased Millipore 14-629
Nature of the assay: Determination of IC50 of Janus Kinase (JAK) inhibition, radioactive end-point 33P-ATP assay, JAK3. The format is biochemical. Particulars: ATP 1.5 uM, peptide 50 uM, 20 minutes, read-out: JAK3-INHIB-DR/v1~NO ADDITIVE~Enzyme_Conc = 100.
As for `C[C@H](Cn1cccn1)NC(=O)c1c[nH]c2ncc(-c3nn(C)c4cc(F)ccc34)nc12` [Example I-133, 2-(6-Fluoro-1-methyl-1H-indazol-3-yl)-5H-pyrrolo[2,3-b]pyrazine-7-carboxylic acid ((R)-1-methyl-2-pyrazol-1-yl-ethyl)-amide], the IC50 came to 56.7 nM.
Turning to `CO[C@@H](C)CNC(=O)c1c[nH]c2ncc(-c3nn(C)c4cc(F)ccc34)nc12` [Example I-135, 2-(6-Fluoro-1-methyl-1H-indazol-3-yl)-5H-pyrrolo[2,3-b]pyrazine-7-carboxylic acid ((S)-2-methoxy-propyl)-amide], the IC50 came out at 6.9 nM.
Regarding `C[C@@H](C#N)CNC(=O)c1c[nH]c2ncc(-c3nn(C)c4cc(F)ccc34)nc12` [Example I-136, 2-(6-Fluoro-1-methyl-1H-indazol-3-yl)-5H-pyrrolo[2,3-b]pyrazine-7-carboxylic acid ((R)-2-cyano-2-methyl-ethyl)-amide], the IC50 came out at 176 nM.
As to `C[C@H](CNC(=O)c1c[nH]c2ncc(-c3nn(C)c4cc(F)ccc34)nc12)C(N)=O` [Example I-137, 2-(6-Fluoro-1-methyl-1H-indazol-3-yl)-5H-pyrrolo[2,3-b]pyrazine-7-carboxylic acid ((R)-2-carbamoyl-propyl)-amide], the IC50 is 132 nM.
For `C[C@H](NC(=O)c1c[nH]c2ncc(-c3nn(C)c4cc(Cl)cc(F)c34)nc12)C1CC1` [Example I-141, 2-(6-Chloro-4-fluoro-1-methyl-1H-indazol-3-yl)-5H-pyrrolo[2,3-b]pyrazine-7-carboxylic acid ((S)-1-cyclopropyl-ethyl)-amide], the IC50 is 3.77 nM.
With `Cn1nc(-c2cnc3[nH]cc(C(=O)NC4CCCC(=O)C4)c3n2)c2ccc(Cl)cc21` (stereo not drawn) [Example I-147, 2-(6-Chloro-1-methyl-1H-indazol-3-yl)-5H-pyrrolo[2,3-b]pyrazine-7-carboxylic acid (3-oxo-cyclohexyl)-amide], the IC50 amounted to 38.4 nM.
Consider `COCC(C)NC(=O)c1c[nH]c2ncc(-c3nn(C)c4cc(Cl)ccc34)nc12` (stereo not drawn) [Example I-152, 2-(6-Chloro-1-methyl-1H-indazol-3-yl)-5H-pyrrolo[2,3-b]pyrazine-7-carboxylic acid (2-methoxy-1-methyl-ethyl)-amide], for which the IC50 was found to be 1.15 nM.
As for `CC1CCCCC1NC(=O)c1c[nH]c2ncc(-c3nn(C)c4cc(Cl)ccc34)nc12` (stereo not drawn) [Example I-153, 2-(6-Chloro-1-methyl-1H-indazol-3-yl)-5H-pyrrolo[2,3-b]pyrazine-7-carboxylic acid (2-methyl-cyclohexyl)-amide], the IC50 worked out at 4.02 nM.
As to `CC[C@H](COC)NC(=O)c1c[nH]c2ncc(-c3nn(C)c4cc(Cl)ccc34)nc12` [Example I-162, 2-(6-Chloro-1-methyl-1H-indazol-3-yl)-5H-pyrrolo[2,3-b]pyrazine-7-carboxylic acid ((R)-1-methoxymethyl-propyl)-amide], the IC50 is 11.3 nM.
On to `C[C@@H](CO)NC(=O)c1c[nH]c2ncc(-c3nn(C)c4cc(Cl)ccc34)nc12` [Example I-164, 2-(6-Chloro-1-methyl-1H-indazol-3-yl)-5H-pyrrolo[2,3-b]pyrazine-7-carboxylic acid ((S)-2-hydroxy-1-methyl-ethyl)-amide], for which the IC50 amounted to 17 nM.
Next, `COC[C@H](C)NC(=O)c1c[nH]c2ncc(-c3nn(C)c4cc(Cl)cc(F)c34)nc12` [Example I-170, 2-(6-Chloro-4-fluoro-1-methyl-1H-indazol-3-yl)-5H-pyrrolo[2,3-b]pyrazine-7-carboxylic acid ((S)-2-methoxy-1-methyl-ethyl)-amide]: 7.12 nM.
In the case of `CCOC[C@H](C)NC(=O)c1c[nH]c2ncc(-c3nn(C)c4cc(Cl)ccc34)nc12` [Example I-171, 2-(6-Chloro-1-methyl-1H-indazol-3-yl)-5H-pyrrolo[2,3-b]pyrazine-7-carboxylic acid ((S)-2-ethoxy-1-methyl-ethyl)-amide], the IC50 is 5.78 nM.
Next, `CC[C@@H](COC)NC(=O)c1c[nH]c2ncc(-c3nn(C)c4cc(Cl)ccc34)nc12` [Example I-173, 2-(6-Chloro-1-methyl-1H-indazol-3-yl)-5H-pyrrolo[2,3-b]pyrazine-7-carboxylic acid ((S)-1-methoxymethyl-propyl)-amide]: 3.56 nM; `COC[C@@H](NC(=O)c1c[nH]c2ncc(-c3nn(C)c4cc(Cl)ccc34)nc12)C(=O)N1CC(F)C1` [Example I-174, 2-(6-Chloro-1-methyl-1H-indazol-3-yl)-5H-pyrrolo[2,3-b]pyrazine-7-carboxylic acid [(R)-2-(3-fluoro-azetidin-1-yl)-1-methoxymethyl-2-oxo-ethyl]-amide]: 1.09 nM; `COC[C@@H](NC(=O)c1c[nH]c2ncc(-c3nn(C)c4cc(Cl)ccc34)nc12)C(=O)N1CC(C#N)C1` [Example I-175, 2-(6-Chloro-1-methyl-1H-indazol-3-yl)-5H-pyrrolo[2,3-b]pyrazine-7-carboxylic acid [(R)-2-(3-cyano-azetidin-1-yl)-1-methoxymethyl-2-oxo-ethyl]-amide]: 0.54 nM.
`C[C@@H](O)[C@@H](CO)NC(=O)c1c[nH]c2ncc(-c3nn(C)c4cc(F)ccc34)nc12` [Example I-176, 2-(6-Fluoro-1-methyl-1H-indazol-3-yl)-5H-pyrrolo[2,3-b]pyrazine-7-carboxylic acid ((1R,2R)-2-hydroxy-1-hydroxymethyl-propyl)-amide]: the IC50 amounted to 165 nM.
Next, `CC[C@@H](C)NC(=O)c1c[nH]c2ncc(-c3nn(C)c4cc(F)ccc34)nc12` [Example I-180, 2-(6-Fluoro-1-methyl-1H-indazol-3-yl)-5H-pyrrolo[2,3-b]pyrazine-7-carboxylic acid ((R)-sec-butyl)-amide]: 3.89 nM; `[2H]C([2H])([2H])OC[C@H](C)NC(=O)c1c[nH]c2ncc(-c3nn(C)c4cc(F)ccc34)nc12` [Example I-182, 2-(6-Fluoro-1-methyl-1H-indazol-3-yl)-5H-pyrrolo[2,3-b]pyrazine-7-carboxylic acid ((S)-1-methyl-2-trideuteromethoxy-ethyl)-amide]: 1.07 nM.
The value for `CC(CC(F)(F)F)NC(=O)c1c[nH]c2ncc(-c3nn(C)c4cc(F)ccc34)nc12` (stereo not drawn) [Example I-185, 2-(6-Fluoro-1-methyl-1H-indazol-3-yl)-5H-pyrrolo[2,3-b]pyrazine-7-carboxylic acid (3,3,3-trifluoro-1-methyl-propyl)-amide] was 5.03 nM.
As to `CC(C)CC(C)NC(=O)c1c[nH]c2ncc(-c3nn(C)c4cc(F)ccc34)nc12` (stereo not drawn) [Example I-187, 2-(6-Fluoro-1-methyl-1H-indazol-3-yl)-5H-pyrrolo[2,3-b]pyrazine-7-carboxylic acid (1,3-dimethyl-butyl)-amide], the IC50 came to 20.4 nM.
The value for `C[C@H](CO)NC(=O)c1c[nH]c2ncc(-c3nn(C)c4cc(Cl)ccc34)nc12` [Example I-200, 2-(6-Chloro-1-methyl-1H-indazol-3-yl)-5H-pyrrolo[2,3-b]pyrazine-7-carboxylic acid ((R)-2-hydroxy-1-methyl-ethyl)-amide] was 54.5 nM.
As to `CC(COc1ccccc1)NC(=O)c1c[nH]c2ncc(-c3nn(C)c4cc(F)ccc34)nc12` (stereo not drawn) [Example I-202, 2-(6-Fluoro-1-methyl-1H-indazol-3-yl)-5H-pyrrolo[2,3-b]pyrazine-7-carboxylic acid (1-methyl-2-phenoxy-ethyl)-amide], the IC50 was found to be 136 nM.
Next, `C[C@H](CCC#N)NC(=O)c1c[nH]c2ncc(-c3nn(C)c4cc(Cl)ccc34)nc12` [Example I-205, 2-(6-Chloro-1-methyl-1H-indazol-3-yl)-5H-pyrrolo[2,3-b]pyrazine-7-carboxylic acid ((R)-3-cyano-1-methyl-propyl)-amide]: 18.4 nM.
Turning to `Cn1nc(-c2cnc3[nH]cc(C(=O)NC4(c5cccc(Br)c5)CCC4)c3n2)c2ccc(F)cc21` [Example I-209, 2-(6-Fluoro-1-methyl-1H-indazol-3-yl)-5H-pyrrolo[2,3-b]pyrazine-7-carboxylic acid [1-(3-bromo-phenyl)-cyclobutyl]-amide], the IC50 was > 1000 nM and 830 nM.
Next, `Cn1nc(-c2cnc3[nH]cc(C(=O)NC4(c5ccc(Br)cc5)CCC4)c3n2)c2ccc(F)cc21` [Example I-210, 2-(6-Fluoro-1-methyl-1H-indazol-3-yl)-5H-pyrrolo[2,3-b]pyrazine-7-carboxylic acid [1-(4-bromo-phenyl)-cyclobutyl]-amide]: 102 nM; `Cn1nc(-c2cnc3[nH]cc(C(=O)N[C@H](c4ccc(Br)cc4)C(F)(F)F)c3n2)c2ccc(F)cc21` [Example I-211, 2-(6-Fluoro-1-methyl-1H-indazol-3-yl)-5H-pyrrolo[2,3-b]pyrazine-7-carboxylic acid [(R)-1-(4-bromo-phenyl)-2,2,2-trifluoro-ethyl)-amide]: above 1000 nM; `COC[C@H](C)NC(=O)c1c[nH]c2ncc(-c3nn(C)c4cc(F)c(F)cc34)nc12` [Example I-212, 2-(5,6-Difluoro-1-methyl-1H-indazol-3-yl)-5H-pyrrolo[2,3-b]pyrazine-7-carboxylic acid ((S)-2-methoxy-1-methyl-ethyl)-amide]: 2.12 nM.
The value for `Cn1nc(-c2cnc3[nH]cc(C(=O)N[C@@H]4CCN(Cc5ccccc5)C4)c3n2)c2ccc(F)cc21` [Example I-213, 2-(6-Fluoro-1-methyl-1H-indazol-3-yl)-5H-pyrrolo[2,3-b]pyrazine-7-carboxylic acid ((R)-1-benzyl-pyrrolidin-3-yl)-amide] was 76.1 nM; that for `Cn1nc(-c2cnc3[nH]cc(C(=O)N[C@@H]4CCN(CC#N)C4)c3n2)c2ccc(F)cc21` [Example I-214, 2-(6-Fluoro-1-methyl-1H-indazol-3-yl)-5H-pyrrolo[2,3-b]pyrazine-7-carboxylic acid ((R)-1-cyanomethyl-pyrrolidin-3-yl)-amide] was 27.3 nM.
Regarding `C[C@@H](NC(=O)c1c[nH]c2ncc(-c3nn(C)c4cc(F)ccc34)nc12)c1cccc(Br)c1` [Example I-215, 2-(6-Fluoro-1-methyl-1H-indazol-3-yl)-5H-pyrrolo[2,3-b]pyrazine-7-carboxylic acid [(R)-1-(3-bromo-phenyl)-ethyl]-amide], the IC50 is 27.3 nM.
